# Publication PMC9130233, “An inhibitor of RORγ for chronic pulmonary obstructive disease treatment” (Scientific Reports, 2022)
# Tests used:
# [1] = biological target: T1, mouse RORγ LBD (Mus musculus, UniProt P51450); experiment: RORγt-LBD co-activator ligand binding TR-FRET assay, mouse; conditions: n = 6
# T1 construct: RORγt-LBD region 264-516aa; made in house
# Source text: To identify small molecule RORγ inhibitors, we conducted in vitro screening using a TR-FRET binding assay to determine the inhibition of RORγ with a series of different compounds. With extensive effort and from hit identification to lead optimization, PCCR-1 was identified[29] (Fig. 1A). Based on the homology of the ligand binding domains (LBD) between different ROR isoforms (hRORα, hRORβ and hRORγ), slight variations have been observed in the LBD regions which possibly lead to differences in competitive binding between the isoforms (Fig. 1B). Simultaneous binding of a tracer and antibody results in an increase in fluorescence resonance energy transfer (FRET), which decreases with displacement of the tracer upon inhibitor binding.
# The human and mouse RORγt cDNA clones were obtained from OriGene (MD USA). […] The next day, plate was read on Infinite F500 reader (Magellan Tecan Switzerland). […] The percent activity of each dilution was determined as the ratio of background corrected signal to the background corrected signal of wells receiving only DMSO. IC50 values were determined by fitting percent inhibition data in GraphPad Prism (version-5.01) software.
# [2] = test system: IL-17 in peritoneal macrophages; experiment: IL-17 release, mouse peritoneal macrophages, LPS; format: cell-based; conditions: Peritoneal macrophage, n = 2, read-out: IC50, IL-17 inhibition
# Description: The peritoneal neutrophils or macrophages were isolated from C57BL/6 male mice or BALB/c female mice (6–8 wks; 18–22 g) injected with 3% or 4% thioglycollate broth. After 4 h or 4 days, RPMI medium was injected into the peritoneal cavity of mouse and peritoneal lavage was collected. The lavage was pooled and spun at 800 rpm for 10 min. The pellet was re-suspended in 1X Gey’s solution for 5 min followed by PBS wash. In case of neutrophils, the isolated cells were seeded in 48 well plate for 1.5 h. After 1.5 h, the supernatant containing peritoneal neutrophils were collected and centrifuged at 2000 rpm for 10 min and the pellet were re-suspended in 2% RPMI. In case of isolated peritoneal macrophages, the cells were seeded in 48 well plate for 3–4 h followed by PBS wash. Both the neutrophils and macrophages were treated with PCCR-1 in 2% RPMI for 1 h followed by stimulation with 10 µg/ml or 5 µg/ml of LPS for 18 h or 24 h. The supernatant collected for IL-17 estimation by ELISA.
# [3] = test system: T2, RORα; experiment: TR-FRET selectivity binding assay, RORα; set-up: species or system human
# T2 construct: purchased Invitrogen
# Source text: (§1) Based on the homology of the ligand binding domains, 3 different isoforms of ROR (hRORα, hRORβ and hRORγ) are reported. Small variations in the LBD regions possibly lead to differences in competitive binding between the nuclear receptors of the ROR isoforms (Fig. 1b). Similar to the assessment of RORγ binding assay, TR-FRET binding assays were also used to assess the affinity of PCCR-1 for other ROR isoforms. […] This was reconfirmed in cellular functional assays for the selected isoforms and nuclear receptors using Gal4 DBD with luciferase reporter system from Indigo (PA, USA). […] In addition, both cellular agonist and antagonist effects as well as for enzyme activity were evaluated with a known reference compound for each target, using a radiolabeled method (Eurofins Cerep, France, Table 1).
# For selectivity, the ROR isoforms RORα, FXR, LXRα, LXRβ, RXR, RARα were incubated with compound for 60 min at 22 °C followed by detection mix containing respective agonist (All trans retinoic acid for RARα, T0901317 for LXRα, LXRβ, 9-cis Retinoic acid for RXR, GW-4064 for FXR) and coactivator peptide (FD22 for RORα, PGC1α for RXR, RARα, TRAP220 for LXRα, LXRβ, SRC2-2 for FXR) and Tb-anti GST antibody prepared in assay buffer were added into a 384-well white plate. Reading taken after overnight incubation and the data analysis done as per the protocol mentioned in RORγt-LBD and co-activator ligand binding assay.
# [4] = biological target: T3, Alpha 1D (Homo sapiens, UniProt P25100); experiment: Cerep panel, Alpha 1D
# T3 construct: Eurofins Cerep
# T3 sequence (P25100 whole entry): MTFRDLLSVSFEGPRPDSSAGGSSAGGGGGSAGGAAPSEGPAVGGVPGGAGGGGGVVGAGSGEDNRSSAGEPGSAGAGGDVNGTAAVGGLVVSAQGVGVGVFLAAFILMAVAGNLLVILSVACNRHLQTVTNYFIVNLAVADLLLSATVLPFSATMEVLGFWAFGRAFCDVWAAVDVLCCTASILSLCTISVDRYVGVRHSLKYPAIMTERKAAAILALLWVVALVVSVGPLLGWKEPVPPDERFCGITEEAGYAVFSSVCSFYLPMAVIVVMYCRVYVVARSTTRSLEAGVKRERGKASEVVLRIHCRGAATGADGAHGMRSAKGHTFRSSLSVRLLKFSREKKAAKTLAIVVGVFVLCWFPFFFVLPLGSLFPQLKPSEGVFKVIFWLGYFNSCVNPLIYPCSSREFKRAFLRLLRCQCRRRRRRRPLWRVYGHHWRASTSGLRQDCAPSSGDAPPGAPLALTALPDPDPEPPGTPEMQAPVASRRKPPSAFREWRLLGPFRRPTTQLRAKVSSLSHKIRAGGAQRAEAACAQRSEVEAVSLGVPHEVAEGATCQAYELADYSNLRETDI
# Source text: as §1
# [5] = test system: IL-17 release from COPD patient PBMCs; experiment: IL-17 release, PBMC from COPD patients; format: cell-based; conditions: Homo sapiens, TCR stimulated, n = 16, read-out: IL-17 IC50, COPD patient's sample: PBMC
# Description: Whole blood and BAL samples from COPD patients were obtained from Multispecialty hospital, Mumbai post approval from ethics committee and informed consent of patients. 30–40 mL Broncho alveolar lavage (BALf) was collected per patient and stored in ice. Blood was collected in heparin vaccutainer as per approved protocol. Both the samples were processed within 2 h of collection. BALF was passed through 100-µm and 40-µm cell strainer to remove debris and mucus, the samples were centrifuged and the cells were re-suspended in RPMI 1640 complete medium. PBMCs from blood were isolated using Histopaque-1077 by density gradient centrifugation. Isolated BAL cells and PBMCs were seeded in 96 well coated with 10 µg/ml anti-CD3 and 2 µg/ml anti-CD2. Cells were further treated with different concentration of test compound for 60 min followed by stimulation with 20 µg/ml anti-CD28 and incubated for 48–72 h. The supernatant was used for estimating IL-17 by ELISA.
# T1 sequence (P51450 264-516): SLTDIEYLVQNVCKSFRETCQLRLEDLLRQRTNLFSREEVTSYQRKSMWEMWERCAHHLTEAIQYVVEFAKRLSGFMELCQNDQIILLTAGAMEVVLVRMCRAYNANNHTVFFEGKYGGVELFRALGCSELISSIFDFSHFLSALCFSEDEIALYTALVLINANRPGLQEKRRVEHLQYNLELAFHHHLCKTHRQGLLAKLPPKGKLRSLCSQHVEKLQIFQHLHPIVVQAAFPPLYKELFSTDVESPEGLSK
smiles,measurement,setting,value
CCn1c(C(C)(C)Oc2ccc(F)cc2F)nc2cc(NC(=O)Cc3ccc(S(=O)(=O)CC)cc3)ccc21 [PCCR-1],IC50,[1],778 nM
same,IC50,[2],1390 nM
same,% Inhibition RORα,[3]; 1 µM,20.91%
same,% Inhibition RORα,[3]; 10 µM,19.82%
same,"Fold over hRORγ, RORα",[3]; vs RORg IC50 31.87 nM,> 313.7 fold
same,IC50,[4],550 nM
same,IC50,[5],336 nM
